Structures can show the parent of a compound that is named as a salt.
Target: purified recombinantly expressed human SSAO (Homo sapiens (Human), UniProt Q16853)
Assay: SSAO enzyme inhibition assay (HRP-coupled hydrogen peroxide detection or 14C-benzaldehyde detection, benzylamine substrate)
Type: biochemical
Conditions: SSAO inhibitory activity, human recombinant SSAO, RT
Procedure: All primary assays were performed at RT. with purified recombinantly expressed human SSAO. Enzyme was prepared essentially as described in Öhman et al. (Protein Expression and Purification 46 (2006) 321-331). In addition, secondary- and selectivity assays were performed using SSAO prepared from various tissues or purified rat recombinant SSAO. The enzyme activity was assayed with benzylamine as substrate by measuring either benzaldehyde production, using ^14C-labeled substrate, or by utilizing the production of hydrogen peroxide in a horseradish peroxidase (HRP) coupled reaction. Briefly, test compounds were dissolved in dimethyl sulfoxide (DMSO) to a concentration of 10 mM. Dose-response measurements were assayed by either creating 1:10 serial dilutions in DMSO to produce a 7 point curve or by making 1:3 serial dilutions in DMSO to produce 11 point curves.
In a horseradish peroxidase (HRP) coupled reaction, hydrogen peroxide oxidation of 10-acetyl-3,7-dihydroxyphenoxazine produced resorufin, which is a highly fluorescent compound (Zhout and Panchuk-Voloshina. Analytical Biochemistry 253 (1997) 169-174; Amplex® Red Hydrogen Peroxide/peroxidase Assay kit, Invitrogen A22188). Enzyme and compounds in 50 mM sodium phosphate, pH 7.4 were set to pre-incubate in flat-bottomed microtiter plates for approximately 15 min before initiating the reaction by addition of a mixture of HRP, benzylamine and Amplex reagent. Benzylamine concentration was fixed at a concentration corresponding to the Michaelis constant, determined using standard procedures. Fluorescence intensity was then measured at several time points during 1-2 h, exciting at 544 nm and reading the emission at 590 nm. For the human SSAO assay final concentrations of the reagents in the assay wells were: SSAO enzyme 1 ug/ml, benzylamine 100 uM, Amplex reagent 20 uM, HRP 0.1 U/mL and varying concentrations of test compound. The inhibition was measured as % decrease of the signal compared to a control without inhibitor (only diluted DMSO). The background signal from a sample containing no SSAO enzyme was subtracted from all data points. Data was fitted to a four parameter logistic model and IC50 values were calculated using the GraphPad Prism 4 or XLfit 4 programs.
SSAO activity was assayed using 14C-labeled benzylamine and analysed by measuring radioactive benzaldehyde. In a white 96-well optiplate (Packard), 20 uL of diluted test compound was pre-incubated at room temperature with 20 uL SSAO enzyme for approximately 15 min with continuous agitation. All dilutions were made with PBS. The reaction was initiated by adding 20 uL of the benzylamine substrate solution containing [7-14C] Benzylamine hydrochloride (CFA589, GE Healthcare). The plate was incubated for 1 h as above after which the reaction was stopped by acidification (10 uL 1M aq HCl). Then 90 uL Micro Scint-E solution (Perkin-Elmer) was added to each well and the plate was continuously mixed for 15 min. Phase separation occurred instantly and activity was read in a Topcount scintillation counter (Perkin-Elmer). In the final reaction well, the human recombinant SSAO concentration was 10 ug/ml. In order to optimize sensitivity, the substrate concentration was decreased as compared to the HRP coupled assay in order to get a higher fraction of radioactive product. In the human SSAO assay, benzylamine concentration was 40 uM (0.2 uCi/mL). Data was analysed as above.

Chain of purified recombinantly expressed human SSAO (Q16853 29-763): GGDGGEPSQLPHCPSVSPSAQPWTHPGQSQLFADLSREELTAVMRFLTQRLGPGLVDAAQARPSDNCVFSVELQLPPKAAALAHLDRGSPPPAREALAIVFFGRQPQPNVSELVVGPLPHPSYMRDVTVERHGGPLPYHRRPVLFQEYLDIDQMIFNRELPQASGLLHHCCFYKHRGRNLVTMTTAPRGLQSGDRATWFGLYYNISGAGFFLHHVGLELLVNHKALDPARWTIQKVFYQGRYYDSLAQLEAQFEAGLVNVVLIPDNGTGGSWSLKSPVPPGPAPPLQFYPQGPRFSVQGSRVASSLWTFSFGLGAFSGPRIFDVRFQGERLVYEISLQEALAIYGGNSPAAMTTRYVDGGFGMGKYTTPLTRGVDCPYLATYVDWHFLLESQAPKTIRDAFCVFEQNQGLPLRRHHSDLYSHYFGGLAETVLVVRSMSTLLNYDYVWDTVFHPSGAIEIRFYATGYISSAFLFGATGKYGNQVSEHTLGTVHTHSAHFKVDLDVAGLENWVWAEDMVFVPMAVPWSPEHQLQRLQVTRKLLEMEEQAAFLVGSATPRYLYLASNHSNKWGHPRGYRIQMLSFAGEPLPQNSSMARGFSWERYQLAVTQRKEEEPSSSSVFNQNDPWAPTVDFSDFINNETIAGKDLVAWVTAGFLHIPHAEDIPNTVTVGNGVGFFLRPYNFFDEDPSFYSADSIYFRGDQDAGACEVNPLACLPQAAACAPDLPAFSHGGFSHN

Row | Structure (SMILES) | IC50 [µM]
1 | Clc1ccc(-n2c(-c3ccc(N4CCOCC4)nn3)nc3ccncc32)cc1 [Example 4, 4-{6-[3-(4-Chlorophenyl)-3H-imidazo[4,5-c]pyridin-2-yl]pyridazin-3-yl}morpholine] | < 0.05
2 | NC1CCN(c2ccc(-c3nc4ccncc4n3-c3ccc(Cl)cc3)cn2)CC1 [Example 8, 1-{5-[3-(4-Chlorophenyl)-3H-imidazo[4,5-c]pyridin-2-yl]pyridin-2-yl}piperidin-4-amine] | < 0.05
3 | Fc1ccc(-n2c(-c3cnc(NCC4CC4)nc3)nc3ccncc32)cc1 [Example 9, N-(Cyclopropylmethyl)-5-[3-(4-fluorophenyl)-3H-imidazo[4,5-c]pyridin-2-yl]pyrimidin-2-amine] | < 0.05
4 | Cc1cc(N2CCOCC2)ncc1-c1nc2ccncc2n1-c1ccc(Cl)cc1F [Example 22, 4-{5-[3-(4-Chloro-2-fluorophenyl)-3H-imidazo[4,5-c]pyridin-2-yl]-4-methylpyridin-2-yl}morpholine] | < 0.05
5 | Fc1ccc(-n2c(-c3cnc(N4CCCOCC4)nc3)nc3ccncc32)cc1 [Example 25, 4-{5-[3-(4-Fluorophenyl)-3H-imidazo[4,5-c]pyridin-2-yl]pyrimidin-2-yl}-1,4-oxazepane] | < 0.05
6 | Cc1nc(N2CCOCC2)ncc1-c1nc2ccncc2n1-c1ccc(Cl)cc1F [Example 27, 4-{5-[3-(4-Chloro-2-fluorophenyl)-3H-imidazo[4,5-c]pyridin-2-yl]-4-methylpyrimidin-2-yl}morpholine] | < 0.05
7 | Cn1ccc(-c2nc3ccncc3n2-c2ccc(Cl)cc2)cc1=O [Example 32, 4-[3-(4-Chlorophenyl)-3H-imidazo[4,5-c]pyridin-2-yl]-1-methyl-1,2-dihydropyridin-2-one] | < 0.05
8 | COCCCNc1ncc(-c2nc3ccncc3n2-c2ccc(C)cc2)cn1 [Example 37, N-(3-Methoxypropyl)-5-[3-(4-methylphenyl)-3H-imidazo[4,5-c]pyridin-2-yl]pyrimidin-2-amine] | < 0.05
9 | Cc1ccc(-n2c(-c3cnc(NCCOC(C)C)nc3)nc3ccncc32)cc1 [Example 39, 5-[3-(4-Methylphenyl)-3H-imidazo[4,5-c]pyridin-2-yl]-N-[2-(propan-2-yloxy)ethyl]pyrimidin-2-amine] | < 0.05
10 | Fc1ccc(-n2c(-c3ccc(N4CCOCC4)nc3)nc3ccncc32)c(F)c1 [Example 41, 4-{5-[3-(2,4-Difluorophenyl)-3H-imidazo[4,5-c]pyridin-2-yl]pyridin-2-yl}morpholine] | < 0.05
11 | CCOCCNc1ncc(-c2nc3ccncc3n2-c2ccc(C)cc2)cn1 [Example 43, N-(2-Ethoxyethyl)-5-[3-(4-methylphenyl)-3H-imidazo[4,5-c]pyridin-2-yl]pyrimidin-2-amine] | < 0.05
12 | Clc1ccc(-n2c(-c3ccc(N4CCOCC4)nc3)nc3ccncc32)cc1 [Example 47, 4-{5-[3-(4-Chlorophenyl)-3H-imidazo[4,5-c]pyridin-2-yl]pyridin-2-yl}morpholine] | < 0.05
13 | Clc1ccc(-n2c(-c3ccc(Cn4ccnc4)cc3)nc3ccncc32)cc1 [Example 48, 1-({4-[3-(4-Chlorophenyl)-3H-imidazo[4,5-c]pyridin-2-yl]phenyl}methyl)-1H-imidazole] | < 0.05
14 | Clc1ccc(-n2c(-c3ccc(CN4CCOCC4)cc3)nc3ccncc32)cc1 [Example 49, 4-({4-[3-(4-Chlorophenyl)-3H-imidazo[4,5-c]pyridin-2-yl]phenyl}methyl)morpholine] | < 0.05
15 | Clc1ccc(-n2c(-c3cnc(N4CCOCC4)nc3)nc3ccncc32)cc1 [Example 51, 4-{5-[3-(4-Chlorophenyl)-3H-imidazo[4,5-c]pyridin-2-yl]pyrimidin-2-yl}morpholine] | < 0.05
16 | Cc1cc(F)ccc1-n1c(-c2cnc(N3CCOCC3)nc2)nc2ccncc21 [Example 55, 4-{5-[3-(4-Fluoro-2-methylphenyl)-3H-imidazo[4,5-c]pyridin-2-yl]pyrimidin-2-yl}morpholine] | < 0.05
17 | Fc1ccc(-n2c(-c3ccc(N4CCOCC4)nc3)nc3ccncc32)c(Cl)c1 [Example 61, 4-{5-[3-(2-Chloro-4-fluorophenyl)-3H-imidazo[4,5-c]pyridin-2-yl]pyridin-2-yl}morpholine] | < 0.05
18 | Oc1ccc(-n2c(-c3ccc(N4CCOCC4)nc3)nc3ccncc32)cc1 [Example 65, 4-{2-[6-(Morpholin-4-yl)pyridin-3-yl]-3H-imidazo[4,5-c]pyridin-3-yl}phenol] | < 0.05
19 | Cc1ccc(-n2c(-c3ccc(N4CCOCC4)nc3)nc3ccncc32)c(F)c1 [Example 67, 4-{5-[3-(2-Fluoro-4-methylphenyl)-3H-imidazo[4,5-c]pyridin-2-yl]pyridin-2-yl}morpholine] | < 0.05

Further lines, results first:

Row | IC50 [µM] | Structure (SMILES)
20 | < 0.05 | Fc1ccccc1-n1c(-c2ccc(N3CCOCC3)nc2)nc2ccncc21 [Example 68, 4-{5-[3-(2-Fluorophenyl)-3H-imidazo[4,5-c]pyridin-2-yl]pyridin-2-yl}morpholine]
21 | < 0.05 | Cc1ccc(-n2c(-c3cnc(N4CCOCC4)nc3)nc3ccncc32)nc1 [Example 79, 4-{5-[3-(5-Methylpyridin-2-yl)-3H-imidazo[4,5-c]pyridin-2-yl]pyrimidin-2-yl}morpholine]
22 | < 0.05 | Fc1cc(Cl)ccc1-n1c(-c2cnc(N3CCCC3)nc2)nc2ccncc21 [Example 83, 5-[3-(4-Chloro-2-fluorophenyl)-3H-imidazo[4,5-c]pyridin-2-yl]-2-(pyrrolidin-1-yl)pyrimidine]
23 | < 0.05 | CN(C)c1ncc(-c2nc3ccncc3n2-c2ccc(Cl)cc2F)cn1 [Example 84, 5-[3-(4-Chloro-2-fluorophenyl)-3H-imidazo[4,5-c]pyridin-2-yl]-N,N-dimethylpyrimidin-2-amine]
24 | < 0.05 | CC(=O)N1CCCN(c2ccc(-c3nc4ccncc4n3-c3ccc(F)cc3)cn2)CC1 [Example 87, 1-(4-{5-[3-(4-Fluorophenyl)-3H-imidazo[4,5-c]pyridin-2-yl]pyridin-2-yl}-1,4-diazepan-1-yl)ethan-1-one; bis(trifluoroacetic acid)]
25 | < 0.05 | CS(=O)(=O)NC1CCN(c2ccc(-c3nc4ccncc4n3-c3ccc(Cl)cc3)cn2)CC1 [Example 88, N-(1-{5-[3-(4-Chlorophenyl)-3H-imidazo[4,5-c]pyridin-2-yl]pyridin-2-yl}piperidin-4-yl)methanesulfonamide]
26 | < 0.05 | NC(=O)N1CCN(c2ccc(-c3nc4ccncc4n3-c3ccc(Cl)cc3)cn2)CC1 [Example 90, 4-{5-[3-(4-Chlorophenyl)-3H-imidazo[4,5-c]pyridin-2-yl]pyridin-2-yl}piperazine-1-carboxamide dihydrochloride]
27 | < 0.05 | O=c1cc(N2CCOCC2)[nH]cc1-c1nc2ccncc2n1-c1ccc(F)cc1 [Example 99, 5-[3-(4-Fluorophenyl)-3H-imidazo[4,5-c]pyridin-2-yl]-2-(morpholin-4-yl)-1,4-dihydropyridin-4-one]
28 | 0.05 to 0.2 | Cc1cc(-n2cccn2)ncc1-c1nc2ccncc2n1-c1ccc(F)cc1 [Example 102, 5-[3-(4-Fluorophenyl)-3H-imidazo[4,5-c]pyridin-2-yl]-4-methyl-2-(1H-pyrazol-1-yl)pyridine]
29 | < 0.05 | Cc1ccc(-n2c(-c3ccc(N4C[C@@H](C)O[C@@H](C)C4)nc3)nc3ccncc32)nc1 [Example 104, (2R,6S)-2,6-Dimethyl-4-{5-[3-(5-methylpyridin-2-yl)-3H-imidazo[4,5-c]pyridin-2-yl]pyridin-2-yl}morpholine]
30 | < 0.05 | Cc1ccc(-n2c(-c3cnc(N4CCOCC4)cc3C)nc3ccncc32)cn1 [Example 107, 4-{4-Methyl-5-[3-(6-methylpyridin-3-yl)-3H-imidazo[4,5-c]pyridin-2-yl]pyridin-2-yl}morpholine]
31 | 0.2 to 1.2 | Cc1cc(N(C)C)ncc1-c1nc2ccncc2n1-c1ccc(F)cc1 [Example 111, 5-[3-(4-Fluorophenyl)-3H-imidazo[4,5-c]pyridin-2-yl]-N,N,4-trimethylpyridin-2-amine]
32 | < 0.05 | Fc1ccc(-n2c(-c3ccc(OC4CCOC4)nc3)nc3ccncc32)cc1 (centres unmarked) [Example 112, 5-[3-(4-Fluorophenyl)-3H-imidazo[4,5-c]pyridin-2-yl]-2-(oxolan-3-yloxy)pyridine]

— patent US9951068B2 (Proximagen Limited, priority 2013, dated 2018)
